Experimental data taken from patent US11541065B2, “Compositions and methods for treating brain injury” (UNM RAINFOREST INNOVATIONS, priority 2018, dated 2023).

Experiments:
[1] = test system: ERK MAPK; experiment: ERK MAPK phosphorylation in rat cortical neuron cultures (immunoblot); format: cell-based; details: rat neurons, glutamate 50 μM, 5, 30 or 60 minutes
Excerpt: (§1) Primary cortical neuronal cultures were established from embryos obtained from pregnant Sprague Dawley female rats (16-17 day gestation) as previously described (Podder and Paul, 2009, J Neurochem 110:1095-1106; Poddar and Paul, 2013, J Neurochem 124: 558-570). Primary cortical neuronal cultures were also developed from pregnant wildtype or GluN2A-knockout mice (15-16 day gestation) using similar protocols. The cells were maintained in culture for 12-14 days prior to treatment with homocysteine. L-homocysteine (200 mM stock) was prepared by alkali hydrolysis of L-homocysteine thiolactone hydrochloride followed by neutralization with 2N HCL and maintained in 0.02 mM N-Tris(hydroxymethyl)methyl-2-aminoethanesulfonicd acid (TES) buffer pH 7.4 (Poddar et al., 2001, Circulation 103:2717-2723). For receptor stimulation neurons were treated with freshly prepared 50 μM of L-homocysteine in Hank's balanced salt solution (Podder and Paul, 2009, J Neurochem 110:1095-1106; Poddar and Paul, 2013, J Neurochem 124: 558-570) containing 50 μM of glycine (Lipton et al., 1997, Proc Natl Acad Sci USA 94:5923-5928). In a subset of culture plates, pharmacological inhibitors (NVP-AAM007) were added […] prior to homocysteine addition and maintained during homocysteine treatment. Cells were processed for immunoblotting or Hoechst DNA staining.
(§2) Equal protein from total cell lysates obtained from rat and mice neuronal cultures were resolved in 7.5% SDS-PAGE, and subjected to immunoblotting procedure as described earlier (Podder and Paul, 2009, J Neurochem 110:1095-1106). Blots were analyzed with antibodies as described in each experiment. All primary antibodies (anti-pERK, anti-ERK) and secondary-horse radish peroxidase conjugated antibody concentrations were used according to recommendations provided by the manufacturer. Signals from immune complexes in the blots were developed using West Pico supersignal chemiluminescence reagents and then captured on X-ray films. Densitometric analysis of the images was performed using the Image J software.
(§3) Embryos obtained from pregnant Sprague Dawley rats (16-17-day gestation) or wild type (WT) and GluN2A KO mice (15-16-day gestation) were used to establish primary cortical neuronal cultures as previously described (Poddar and Paul, 2009, J Neurochem 110:1095-1106; Poddar and Paul, 2013, J Neurochem 124:558-570; Poddar et al., 2017, J Neurochem 142:560-573). Neurons were grown on either (a) 35-mm culture dishes (MatTek Corp., Ashland, Mass.) coated overnight with poly-D-lysine (50 μg/ml) and laminin (10 μg/ml) for Ca^2+ imaging studies, (b) poly-D-lysine-coated 60 mm dishes (Corning BIOCOAT, Corning Inc., Corning, N.Y.) for biochemical studies, or (c) poly-D-lysine-coated 4-well culture slides (Corning BIOCOAT, Corning Inc., Corning, N.Y.) for cell death assay. Neurons were maintained in culture for 12-13 days before experiment. The cells were treated with freshly prepared L-homocysteine (50 μM) in Hank's balanced salt solution containing 50 μM of glycine (Lipton et al., 1997, Proceedings of the National Academy of Sciences of the United States of America 94:5923-5928; Poddar and Paul, 2009, J Neurochem 110:1095-1106; Poddar and Paul, 2013, J Neurochem 124:558-570; Poddar et al., 2017, J Neurochem 142:560-573) for the specified time periods. In a parallel series of experiments, cells were treated with glutamate (50 μM) for the specified time periods. Cells were then processed for live cell imaging, immunoblotting or cell death assay. In some experiments EGTA, DL-AP5, NVP-AAM077, Ro 25-6981 or PD98059 was added 15 minutes prior to L-homocysteine or glutamate treatment.
Rat and mice neuron cultures were harvested in SDS sample buffer (Laemmli, 1970, Nature 227:680-685). […]

[2] = test system: [Ca^2+]i; experiment: Intracellular Ca^2+ by Fura2 imaging, WT and GluN2A KO mouse neuronal cultures; format: cell-based, mice; details: neurons from both WT and GluN2A-KO mice, glutamate 50 μM
Experimental: as §3
[Ca^2+]i in neurons was determined using the fluorescent indicator, Fura2-AM. […] Fluorescence excitations (340 and 380 nm) were provided with Sutter LB-LS/30 Lambda xenon arc lamp and fluorescence emissions (510 nm) were captured using a CCD camera (Teledyne Photometries, Tucson, Ariz.). […] Maximum and minimum fluorescence ratios were determined from Fura2 loaded cells treated with ionomycin (5 μM) in calcium containing medium (2 mM) or in calcium free media with EGTA (0.5 mM).

[3] = test system: ERK MAPK; experiment: ERK MAPK phosphorylation in WT and GluN2A-KO mouse neuron cultures (immunoblot); format: cell-based, mice; details: both WT and GluN2A-KO mice cultures, glutamate 50 μM
Excerpt: as §1, §2
as §3, with “In some experiments EGTA, DL-AP5, NVP-AAM077, Ro 25-6981 or PD98059 was added 15 minutes prior to L-homocysteine or glutamate treatment.” left out

[4] = test system: [Ca^2+]i; experiment: Intracellular Ca^2+ by Fura2 imaging, rat neuronal cultures; format: cell-based; details: rat neurons
Experimental: as §3
[Ca^2+]i in neurons was determined using the fluorescent indicator, Fura2-AM. Briefly, neurons were loaded with Fura2 (10 μM) in phenol red free Hank's balanced salt solution for 30 minutes at 37° C. followed by post-incubation for 20 minutes (Paul, S. and Connor, J. A., 2010, J Neurochem 114:1107-1118). Time lapse live cell imaging was performed following stimulation using a Nikon Ti Eclipse inverted microscope equipped with Tokai Hit stage top incubator maintained at 37° C. and infused with 95:5% air:CO2 mixture. Fields of 5-8 cells were imaged using a 40× oil immersion objective (Nikon). Fluorescence excitations (340 and 380 nm) were provided with Sutter LB-LS/30 Lambda xenon arc lamp and fluorescence emissions (510 nm) were captured using a CCD camera (Teledyne Photometries, Tucson, Ariz.). NIS Elements AR software was used for data acquisition and analysis. Ratiometric data (340/380 nm) from regions of interest were corrected for background and converted into estimates of [Ca^2+]i. as described previously (Paul, S. and Connor, J. A., 2010, J Neurochem 114:1107-1118) using the equation developed earlier (Grynkiewicz et al., 1985, J Biol Chem 260:3440-3450). Maximum and minimum fluorescence ratios were determined from Fura2 loaded cells treated with ionomycin (5 μM) in calcium containing medium (2 mM) or in calcium free media with EGTA (0.5 mM).

[5] = test system: cPLA2; experiment: cPLA2 activity in rat neuronal lysates (enzymatic assay); format: cell-based; details: rat neurons, L-homocysteine 50 μM four hours, with MK801 10 μM, NVP-AAM077 30 nM, Ro 25-6981 1 μM, PD98059 15 μM or SB203580 5 μM
Experimental: (§4) Neuron cultures were treated with or without L-homocysteine in the presence or absence of pharmacological inhibitors for the time period specified in each experiment. The medium was collected from each experimental plate and centrifuged at 1000 rpm for five minutes to remove cellular debris. Equal amounts (100 μl) of the supernatant from each sample were used to determine the amount of PGE2 using the PGE2 enzyme immunoassay kit according to the manufacturer's instructions. For measurement of cPLA2 activity, the neuronal cells from the above treated conditions were harvested in ice-cold Tris-buffered saline (pH7.4) containing sodium pyrophosphate as phosphatase inhibitor, sonicated three times with five-second bursts and two minutes on ice between intervals. The lysed cell suspensions were centrifuged at 10,000 rpm for 10 minutes and the supernatant removed. Equal amounts of protein from the supernatant (assessed using BCA protein estimation kit) were estimated for activity of cPLA2 using cPLA2 activity assay kit according to the manufacturer's protocol.
For measurement of cPLA2 activity and MCP-1 levels in cell lysates, neuronal lysates were prepared by harvesting neurons in ice-cold Tris-buffered saline (pH 7.4) containing phosphatase inhibitor, sonicated three times in five-second bursts and placed on ice (two minutes) between each burst of sonication. The lysed cell suspensions were centrifuged at 10,000 rpm (10 minutes) and the supernatant was collected in another tube. Equal amounts of protein from the supernatant were processed for cPLA2 activity assay according to the manufacturer's protocol. Equal protein from the lysates were also used to estimate MCP-1 levels using an MCP-1 ELISA kit.

[6] = test system: PGE2; experiment: PGE2 release from rat neuronal cultures (enzyme immunoassay / ELISA of culture media); format: cell-based; details: rat neurons, L-homocysteine 50 μM four hours, with DL-AP5 200 μM, MK801 10 μM, NVP-AAM077 30 nM, Ro 25-6981 1 μM, PD98059 15 μM, SB203580 5 μM, Bengamide B 500 nM or CAY10404 100 nM
Experimental: as §4
For measurement of PGE2 levels and MCP-1 levels released from neurons, culture medium was collected from each experimental plate and centrifuged at 1000 rpm for five minutes to remove cellular debris. Equal volume (100 μl) of the supernatant from each sample was used to determine PGE2 level using the PGE2 ELISA kit according to the manufacturer's instructions.

[7] = test system: COX2; experiment: COX2 protein level in rat neuronal cultures (immunoblot); format: cell-based; details: rat neurons, L-homocysteine 50 μM four hours, with MK801 10 μM, NVP-AAM077 30 nM, Ro 25-6981 1 μM, PD98059 15 μM, SB203580 5 μM or Bengamide B 500 nM
Experimental: as §2, with “(Poddar” for “(Podder”, “(anti-COX2, anti-B-tubulin)” for “(anti-pERK, anti-ERK)”
Rat and mice neuronal cultures were washed with PBS (pH 7.4), containing sodium pyrophosphate and sodium vanadate as phosphatase inhibitors, and harvested in SDS sample buffer (Laemmli, 1970, Nature 227:680-685). Equal protein from total cell lysates, estimated using BCA kit, was resolved by SDS-PAGE (7.5%) followed by western blotting on PVDF membranes. Immunoblot analysis was performed by first blocking with 5% non-fat dry milk for 1 h at room temperature followed by incubation with either COX2 immunoblot analysis (Poddar and Paul, 2009, J Neurochem 110:1095-1106) as described in each experiment. All primary antibodies and horseradish peroxidase conjugated secondary antibodies were used according to manufacturer's recommendations. Signals from immune complexes in the blots were developed using West Pico supersignal chemiluminescence reagents and then captured on X-ray films. Densitometric analysis of the images was performed using the NIH Image J software.

[8] = test system: rat cortical neuronal cultures; experiment: Neuronal cell death by Hoechst DNA staining, rat cortical neuron cultures; format: cell-based; details: rat neurons, with NVP-AAM077 30 nM or PD98059 15 μM
Experimental: (§5) Neurons were subjected to staining with Hoechst 33342 dye for 15 minutes, washed extensively with PBS, and analyzed using fluorescent microscopy to assess nuclear damage. Imaging was performed with a Zeiss Axiovert 200M fluorescence microscope with attached AxioCam CCD camera using 20× objective lens (Carl Zeiss, Thomwood, N.Y.). To quantitatively assess the percentage of pyknotic nuclei a total of 1000 cells were counted for each set of experiments. Mean±SEM (n=3) were used for statistical comparison using ANOVA (Bonferroni's multiple comparison test). Differences were considered significant when p<0.05.
(§6) […] Glutamate treated cells were then maintained in their original medium for another 17 hours. For some experiments, neurons were treated with L-homocysteine or glutamate in the presence of NVP-AAM077 or PD98059. The neurons were then fixed and stained with Hoechst 33342 dye as previously described (Poddar and Paul, 2009, J Neurochem 110:1095-1106). Percentage of pyknotic nuclei was quantitatively assessed by fluorescent microscopy to determine the extent of neuronal death.

[9] = test system: neuron cultures from WT and GluN2A-KO mice; experiment: Neuronal cell death by Hoechst DNA staining, WT and GluN2A-KO mouse neuron cultures; format: cell-based; details: PD98059 15 μM
Experimental: as §5, §6

| SMILES | effect on homocysteine-mediated increase in cPLA2 activity [5] | effect on homocysteine-induced PGE2 release [6] | effect on homocysteine-induced increase in COX2 protein level [7] | other results |
| --- | --- | --- | --- | --- |
| N[C@@H](CCC(=O)O)C(=O)O [glutamate] |  |  |  | ERK MAPK phosphorylation [1]: rapid but transient increase in ERK MAPK phosphorylation; Fura2 fluorescence ratio and [Ca^2+]i [2]: rapid increase in Fura2 fluorescence ratio and [Ca^2+]i; ERK MAPK phosphorylation [3]: rapid but transient increase in ERK MAPK phosphorylation; increase in [Ca^2+]i ([4]; glutamate 50 μM, within 2.5 minutes): approximately 21 fold |
| C[C@]12N[C@H](Cc3ccccc31)c1ccccc12 [MK801] | is blocked | significantly reduced | blocks homocysteine induced COX2 protein expression |  |
| CCCCCCCCCCCCCC(=O)O[C@H]1CC[C@H](NC(=O)[C@H](OC)[C@H](O)[C@@H](O)[C@H](O)/C=C/C(C)C)C(=O)N(C)C1 [Bengamide B] |  | significant decrease in PGE2 level | attenuates homocysteine-induced increase in COX2 protein level |  |
| COc1cccc(-c2cc(=O)c3ccccc3o2)c1N [PD98059] | significantly attenuates homocysteine-mediated increase in cPLA2 activity | decreases significantly | significantly reduced | effect on homocysteine-induced neuronal death ([8]; L-homocysteine 50 μM 18 hours): attenuates homocysteine-induced neurotoxicity; effect on glutamate induced neuronal cell death ([8]; glutamate 50 μM one hour then 17 hours in original medium): remain unaffected; effect on homocysteine-induced neurotoxicity ([9]; neurons from WT mice, L-Hcy 50 μM 18 hours): significantly reduced; effect on glutamate-induced neurotoxicity ([9]; neurons from either WT or GluN2A KO mice, glutamate 50 μM one hour then 17 hours): fails to reduce glutamate-induced neurotoxicity |
| CS(=O)(=O)c1ccc(-c2noc(C(F)(F)F)c2-c2ccccc2)cc1 [CAY10404] |  | significantly reduced |  |  |
| O=C(O)CN(CCOCCOCCN(CC(=O)O)CC(=O)O)CC(=O)O [EGTA] |  |  |  | effect on homocysteine-induced increase in Fura2 fluorescence ratio and [Ca^2+]i ([4]; somata and processes, L-homocysteine 50 μM 60 minutes, with EGTA 2 mM, DL-AP5 200 μM, NVP-AAM077 30 nM or Ro 25-6981 1 μM): are blocked |
| C[S+]([O-])c1ccc(-c2nc(-c3ccncc3)c(-c3ccc(F)cc3)[nH]2)cc1 (stereo not drawn) [SB203580] | significant reduction | significant reduction | significant reduction |  |
